Data from PMC9774391 (ACS Omega, 2022).

Key:
AChE = AChE (Homo sapiens, UniProt P22303); assay: biochemical; details: for inhibition at 1000 µM: 10^–3 M; for inhibition at 100 µM: 10^–4 M
Protocol: (§1) According to the modified Ellman approach outlined in our team’s earlier work, the AChE and BChE inhibitory activities of the obtained compounds were evaluated.[18]−[21]

BChE = BChE (Homo sapiens, UniProt P06276); assay: biochemical; details: for inhibition at 1000 µM: 10^–3 M; for inhibition at 100 µM: 10^–4 M
BChE, sequence (P06276 29-602): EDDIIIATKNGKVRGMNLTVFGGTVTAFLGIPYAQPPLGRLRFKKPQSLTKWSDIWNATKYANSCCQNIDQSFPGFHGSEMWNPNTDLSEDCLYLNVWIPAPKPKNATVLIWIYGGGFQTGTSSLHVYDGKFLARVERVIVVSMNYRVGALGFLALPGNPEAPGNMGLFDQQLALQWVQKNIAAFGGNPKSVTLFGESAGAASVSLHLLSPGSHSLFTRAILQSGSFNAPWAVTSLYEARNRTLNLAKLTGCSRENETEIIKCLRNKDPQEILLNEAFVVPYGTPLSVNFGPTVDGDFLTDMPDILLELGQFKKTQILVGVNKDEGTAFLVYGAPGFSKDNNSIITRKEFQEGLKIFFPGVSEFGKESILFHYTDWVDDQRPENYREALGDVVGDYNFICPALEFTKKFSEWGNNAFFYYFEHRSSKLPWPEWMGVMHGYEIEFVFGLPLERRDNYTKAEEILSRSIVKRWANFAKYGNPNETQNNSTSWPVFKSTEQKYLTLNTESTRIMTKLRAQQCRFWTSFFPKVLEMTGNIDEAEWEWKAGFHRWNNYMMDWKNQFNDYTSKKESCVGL
Protocol: as §1

MAO-A = biological target: T1, MAO-A (Homo sapiens, UniProt P21397); assay: In vitro MAO-A inhibition assay (fluorometric); format: biochemical; details: for inhibition at 1000 µM: 10^–3 M; for inhibition at 100 µM: 10^–4 M
T1 sequence (P21397 1-527): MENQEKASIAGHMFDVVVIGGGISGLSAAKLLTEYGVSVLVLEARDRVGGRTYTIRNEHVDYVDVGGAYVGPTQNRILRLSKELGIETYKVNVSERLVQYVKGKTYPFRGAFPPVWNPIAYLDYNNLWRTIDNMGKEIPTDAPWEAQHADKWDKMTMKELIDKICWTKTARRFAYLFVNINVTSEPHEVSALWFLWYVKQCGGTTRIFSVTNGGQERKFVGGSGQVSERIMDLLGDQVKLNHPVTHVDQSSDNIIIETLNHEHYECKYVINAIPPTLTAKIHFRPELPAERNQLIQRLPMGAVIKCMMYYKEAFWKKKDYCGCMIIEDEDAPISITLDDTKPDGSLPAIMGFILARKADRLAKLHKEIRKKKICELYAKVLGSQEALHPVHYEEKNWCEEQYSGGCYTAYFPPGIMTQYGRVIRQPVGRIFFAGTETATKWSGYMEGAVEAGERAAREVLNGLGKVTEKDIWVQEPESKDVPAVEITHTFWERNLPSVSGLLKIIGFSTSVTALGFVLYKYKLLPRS

MAO-B = biological target: T2, MAO-B (Homo sapiens, UniProt P27338); assay: In vitro MAO-B inhibition assay (fluorometric); format: biochemical; details: for inhibition at 1000 µM: 10^–3 M; for inhibition at 100 µM: 10^–4 M; for inhibition at 10 µM: 10^–5 M; for inhibition at 1 µM: 10^–6 M; for inhibition at 0.1 µM: 10^–7 M; for inhibition at 0.01 µM: 10^–8 M; for inhibition at 0.001 µM: 10^–9 M
T2 sequence (P27338 1-520): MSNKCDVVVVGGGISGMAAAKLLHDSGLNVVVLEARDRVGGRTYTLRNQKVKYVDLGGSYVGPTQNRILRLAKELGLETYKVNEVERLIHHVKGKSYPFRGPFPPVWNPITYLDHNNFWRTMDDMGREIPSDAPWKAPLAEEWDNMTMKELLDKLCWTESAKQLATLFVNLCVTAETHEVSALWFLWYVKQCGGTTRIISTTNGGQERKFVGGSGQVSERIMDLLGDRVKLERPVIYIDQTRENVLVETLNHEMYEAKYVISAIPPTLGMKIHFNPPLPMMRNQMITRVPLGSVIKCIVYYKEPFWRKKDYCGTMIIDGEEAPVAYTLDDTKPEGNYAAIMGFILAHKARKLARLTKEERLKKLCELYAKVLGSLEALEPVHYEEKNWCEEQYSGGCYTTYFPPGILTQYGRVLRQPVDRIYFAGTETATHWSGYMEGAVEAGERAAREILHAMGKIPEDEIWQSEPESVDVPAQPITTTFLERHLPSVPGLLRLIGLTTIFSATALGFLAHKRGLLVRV

Cytotoxicity test (MTT) = format: cell-based; details: NIH/3T3 mouse embryonic fibroblast cells (ATCC CRL-1658), NIH/3T3 mouse fibroblast healthy cell line
Protocol: The NIH/3T3 cells were incubated according to the manufacturer’s recommendations. In 96-well plates, NIH/3T3 cells were seeded at a density of 1 × 10^4 cells per well. The MTT test was conducted in line with the previously mentioned standards.[19],[22],[23],[28],[30]

AChE, sequence (P22303 32-614): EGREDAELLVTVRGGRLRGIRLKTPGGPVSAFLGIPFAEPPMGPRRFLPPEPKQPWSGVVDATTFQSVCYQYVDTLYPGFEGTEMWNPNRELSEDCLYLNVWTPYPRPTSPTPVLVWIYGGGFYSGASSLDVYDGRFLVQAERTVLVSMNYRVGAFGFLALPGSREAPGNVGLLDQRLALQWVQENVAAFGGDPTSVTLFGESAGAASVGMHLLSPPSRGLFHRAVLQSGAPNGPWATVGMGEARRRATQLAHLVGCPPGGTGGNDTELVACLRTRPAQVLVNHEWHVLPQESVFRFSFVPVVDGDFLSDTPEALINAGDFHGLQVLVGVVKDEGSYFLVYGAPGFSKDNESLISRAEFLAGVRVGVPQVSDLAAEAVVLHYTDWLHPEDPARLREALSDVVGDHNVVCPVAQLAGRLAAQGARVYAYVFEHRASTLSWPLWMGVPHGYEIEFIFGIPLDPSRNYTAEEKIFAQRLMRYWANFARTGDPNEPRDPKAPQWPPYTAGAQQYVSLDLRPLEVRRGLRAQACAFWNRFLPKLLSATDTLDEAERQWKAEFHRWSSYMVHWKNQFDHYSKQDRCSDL

Compound | inhibition at 1000 µM (AChE) [%] | inhibition at 100 µM (AChE) [%] | inhibition at 1000 µM (BChE) [%] | inhibition at 100 µM (BChE) [%] | inhibition at 1000 µM (MAO-A) [%] | inhibition at 100 µM (MAO-A) [%] | inhibition at 1000 µM (MAO-B) [%] | inhibition at 100 µM (MAO-B) [%] | IC50 (MAO-B) [µM] | inhibition at 10 µM (MAO-B) [%] | inhibition at 1 µM (MAO-B) [%] | inhibition at 0.1 µM (MAO-B) [%] | inhibition at 0.01 µM (MAO-B) [%] | inhibition at 0.001 µM (MAO-B) [%] | IC50 (Cytotoxicity test (MTT)) [µM]
COc1cc2c(cc1OC)C(=O)/C(=C/c1ccc(NC(=O)CN3CCN(C)CC3)cc1)C2 [D3] | 99.3 ± 2.34 | 44.1 ± 0.906 | 98.1 ± 1.57 | 40.4 ± 0.548 | 57.5 ± 0.875 | 26.5 ± 0.365 | 67.2 ± 0.751 | 36.2 ± 0.452 | – | – | – | – | – | – | –
COc1ccc2c(c1)C/C(=C\c1ccc(NC(=O)CN3CCN(C)CC3)cc1)C2=O [D1] | 83.2 ± 1.09 | 47.3 ± 0.887 | 94.6 ± 0.972 | 32.8 ± 0.455 | 59 ± 0.598 | 21.4 ± 0.424 | 65.12 ± 0.623 | 38.7 ± 0.512 | – | – | – | – | – | – | –
CCN(CC)CCN(CC)CC(=O)Nc1ccc(/C=C2\Cc3ccc(OC)cc3C2=O)cc1 [D41] | 81 ± 1.6 | 36.6 ± 0.399 | 99.15 ± 0.704 | 46.3 ± 1.37 | 82.8 ± 2.12 | 22.5 ± 0.622 | 90.2 ± 1.36 | 81.8 ± 1.29 | 0.209 ± 0.0095 | 73.3 ± 1.42 | 65.4 ± 0.975 | 42.2 ± 0.563 | 32.7 ± 0.427 | 21.5 ± 0.385 | 5.89 ± 0.119
COCCN1CCN(CC(=O)Nc2ccc(/C=C3\Cc4cc(OC)ccc4C3=O)cc2)CC1 [D13] | 71.2 ± 1.07 | 43 ± 0.998 | 90.1 ± 1.46 | 23.9 ± 0.934 | 82.7 ± 1.21 | 35.5 ± 0.623 | 84.6 ± 1.11 | 44.6 ± 0.557 | – | – | – | – | – | – | –
C#CCN(C)CC(=O)Nc1ccc(/C=C2\Cc3cc(OC)c(OC)cc3C2=O)cc1 [D33] | 52.4 ± 1.24 | 32 ± 0.462 | 99 ± 1.75 | 46.6 ± 0.845 | 84.3 ± 1.29 | 29.9 ± 0.552 | 82.1 ± 1.19 | 39.3 ± 0.665 | – | – | – | – | – | – | –
CCN1CCN(CC(=O)Nc2ccc(/C=C3\Cc4ccc(OC)cc4C3=O)cc2)CC1 [D5] | 38.6 ± 0.518 | 31.7 ± 0.499 | 55.6 ± 549 | 26.3 ± 0.211 | 66.6 ± 1.49 | 24.7 ± 0.514 | 75.6 ± 1.08 | 44.4 ± 0.627 | – | – | – | – | – | – | –
COc1ccc2c(c1)C(=O)/C(=C/c1ccc(NC(=O)CN3CCN(C)CC3)cc1)C2 [D2] | 50.3 ± 0.731 | 42.9 ± 0.601 | 61.3 ± 0.18 | 23.6 ± 0.226 | 46.6 ± 0.853 | 27.7 ± 0.909 | 75.3 ± 0.987 | 45.3 ± 0.859 | – | – | – | – | – | – | –
COCCN1CCN(CC(=O)Nc2ccc(/C=C3\Cc4ccc(OC)cc4C3=O)cc2)CC1 [D14] | 44.2 ± 0.999 | 36.3 ± 0.664 | 73.7 ± 1.51 | 33 ± 0.721 | 48.5 ± 0.749 | 27.95 ± 0.243 | 69 ± 0.847 | 39.3 ± 0.652 | – | – | – | – | – | – | –
C#CCN(C)CC(=O)Nc1ccc(/C=C2\Cc3cc(OC)ccc3C2=O)cc1 [D31] | 41.3 ± 0.966 | 27.1 ± 0.803 | 98.8 ± 2.69 | 41.6 ± 0.988 | 92.7 ± 1.31 | 23.9 ± 0.572 | 93.6 ± 1.48 | 88.7 ± 1.36 | 0.0619 ± 0.0028 | 81.5 ± 1.24 | 75.9 ± 1.06 | 61.9 ± 1.01 | 35.5 ± 0.485 | 18.8 ± 0.511 | 26 ± 1.28
C=CCN1CCN(CC(=O)Nc2ccc(/C=C3\Cc4cc(OC)c(OC)cc4C3=O)cc2)CC1 [D9] | 81.3 ± 1.13 | 45.2 ± 0.996 | 82.8 ± 1.03 | 28.2 ± 0.679 | 32.6 ± 0.389 | 24.5 ± 0.459 | 58.63 ± 0.523 | 34.8 ± 0.384 | – | – | – | – | – | – | –
COc1ccc2c(c1)C/C(=C\c1ccc(NC(=O)CN3CCN(CCO)CC3)cc1)C2=O [D16] | 88 ± 1.09 | 42.6 ± 1.85 | 87.63 ± 0.618 | 23.6 ± 0.448 | 65.8 ± 0.779 | 22 ± 0.233 | 75.6 ± 1.1 | 42.9 ± 0.629 | – | – | – | – | – | – | –
COc1cc2c(cc1OC)C(=O)/C(=C/c1ccc(NC(=O)CN3CCN(CCO)CC3)cc1)C2 [D18] | 94.7 ± 1.97 | 45.3 ± 1.01 | 99.21 ± 0.887 | 41.8 ± 0.766 | 63.8 ± 0.683 | 28.39 ± 0.097 | 75.6 ± 1.2 | 47.34 ± 0.457 | – | – | – | – | – | – | –
CCN(CC)CCN(CC)CC(=O)Nc1ccc(/C=C2\Cc3cc(OC)c(OC)cc3C2=O)cc1 [D42] | 99.8 ± 2.01 | 44.2 ± 0.71 | 99.4 ± 1.29 | 45.91 ± 0.206 | 97.71 ± 0.411 | 40.2 ± 0.736 | 95.2 ± 1.62 | 40.2 ± 0.824 | – | – | – | – | – | – | –
COCCN1CCN(CC(=O)Nc2ccc(/C=C3\Cc4cc(OC)c(OC)cc4C3=O)cc2)CC1 [D15] | 91.6 ± 2.56 | 43.4 ± 0.877 | 94.6 ± 1.6 | 43.5 ± 0.966 | 70.52 ± 0.536 | 20.3 ± 0.412 | 80.2 ± 1.46 | 40.1 ± 0.508 | – | – | – | – | – | – | –
C#CCN1CCN(CC(=O)Nc2ccc(/C=C3\Cc4cc(OC)ccc4C3=O)cc2)CC1 [D10] | 71.3 ± 1.01 | 29.4 ± 0.587 | 41.3 ± 0.755 | 26.6 ± 1.35 | 48.9 ± 0.966 | 22.4 ± 0.662 | 68.96 ± 0.578 | 42.6 ± 0.652 | – | – | – | – | – | – | –
COc1ccc2c(c1)C(=O)/C(=C/c1ccc(NC(=O)CN3CCN(CCO)CC3)cc1)C2 [D17] | 73.7 ± 1.06 | 48.1 ± 0.669 | 75.532 ± 0.061 | 21.1 ± 0.804 | 82.45 ± 0.529 | 34.4 ± 0.508 | 84.6 ± 1.04 | 45.4 ± 0.669 | – | – | – | – | – | – | –
CCN1CCN(CC(=O)Nc2ccc(/C=C3\Cc4cc(OC)c(OC)cc4C3=O)cc2)CC1 [D6] | 97.5 ± 2.23 | 31.3 ± 0.697 | 96.51 ± 0.317 | 32.8 ± 0.908 | 93.27 ± 0.309 | 33.9 ± 1.13 | 95.5 ± 1.25 | 48.6 ± 1.13 | – | – | – | – | – | – | –
C#CCN1CCN(CC(=O)Nc2ccc(/C=C3\Cc4ccc(OC)cc4C3=O)cc2)CC1 [D11] | 66.6 ± 0.985 | 49.9 ± 0.809 | 91.7 ± 1.21 | 33.9 ± 0.569 | 77 ± 1.59 | 25.5 ± 0.52 | 79.6 ± 1.13 | 35.6 ± 0.488 | – | – | – | – | – | – | –
C#CCN1CCN(CC(=O)Nc2ccc(/C=C3\Cc4cc(OC)c(OC)cc4C3=O)cc2)CC1 [D12] | 96.5 ± 2.7 | 49.7 ± 0.988 | 98.4 ± 1.79 | 48.8 ± 0.529 | 95.76 ± 0.49 | 45.1 ± 0.466 | 96.2 ± 1.34 | 49 ± 0.623 | – | – | – | – | – | – | –
C=CCN1CCN(CC(=O)Nc2ccc(/C=C3\Cc4ccc(OC)cc4C3=O)cc2)CC1 [D8] | 51 ± 0.995 | 42 ± 0.661 | 51 ± 0.667 | 28.4 ± 0.409 | 57.2 ± 1.34 | 26.6 ± 0.455 | 78.6 ± 1.15 | 46.2 ± 0.547 | – | – | – | – | – | – | –
CCN1CCN(CC(=O)Nc2ccc(/C=C3\Cc4cc(OC)ccc4C3=O)cc2)CC1 [D4] | 74.5 ± 1.02 | 38.2 ± 0.479 | 92.9 ± 2.41 | 21.21 ± 0.11 | 67.6 ± 1.06 | 20.9 ± 0.455 | 77.1 ± 1.06 | 36.3 ± 0.496 | – | – | – | – | – | – | –
C=CCN1CCN(CC(=O)Nc2ccc(/C=C3\Cc4cc(OC)ccc4C3=O)cc2)CC1 [D7] | 61.3 ± 1.01 | 34.8 ± 0.472 | 56.8 ± 0.971 | 21.2 ± 0.378 | 61.89 ± 0.618 | 41.4 ± 0.808 | 66.33 ± 0.557 | 47.9 ± 0.952 | – | – | – | – | – | – | –
